Each structure is given as a SMILES string.

For assay [1], the target named is T1, CDK4/cyclin D3 (Homo sapiens, UniProt P11802).
T1 construct: purchased Carna Biosciences, Inc. QS S Assist CDK4/Cyclin D3_FP Kit
As to the kind of experiment: Human CDK4/cyclin D3 inhibitory activity (QS S Assist CDK4/Cyclin D3_FP Kit, IMAP fluorescence polarization). The format is biochemical. The settings on record: Human CDK4/cyclin D3 inhibitory activity; read-out: CDK4 Activity symbol. An outline of the steps: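 Percent inhibition, relative to DMSO with and without enzyme, was curve-fitted to give IC50 from polarization (ex 485, em 535 nm). The 45-min room-temperature reaction used 12.5-25 ng/well enzyme, kit ATP/substrate/metal mix, and HEPES pH 7.4 buffer with Tween20 and DTT, followed by 30-min IMAP binding in the dark.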
(In fluorescence polarisation assays a small probe gives low polarisation when free and higher when bound to something large.)

Assay [2] concerns the target T2, CDK2/cyclin A2 (Homo sapiens, UniProt P24941).
T2 construct: purchased Carna Biosciences, Inc. QS S Assist CDK2/Cyclin A2_FP Kit
The assay can be described thus: Human CDK2/cyclin A2 inhibitory activity (QS S Assist CDK2/Cyclin A2_FP Kit, IMAP fluorescence polarization). The format is biochemical. The conditions noted are these: Human CDK2/cyclin A2 inhibitory activity; read-out: CDK2 Activity symbol. The method in brief:
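Kinase activity read as fluorescence polarization (485/535 nm) after phosphorylated fluorescent substrate binds IMAP reagent (30 min, RT, dark). Enzyme (2.5 ng/well) reacted 60 min at RT with ATP/substrate/metal in HEPES pH 7.4 buffer with Tween 20 and DTT; no-enzyme wells define 0% activity; IC50 by curve fit.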

T1 sequence (P11802 whole entry): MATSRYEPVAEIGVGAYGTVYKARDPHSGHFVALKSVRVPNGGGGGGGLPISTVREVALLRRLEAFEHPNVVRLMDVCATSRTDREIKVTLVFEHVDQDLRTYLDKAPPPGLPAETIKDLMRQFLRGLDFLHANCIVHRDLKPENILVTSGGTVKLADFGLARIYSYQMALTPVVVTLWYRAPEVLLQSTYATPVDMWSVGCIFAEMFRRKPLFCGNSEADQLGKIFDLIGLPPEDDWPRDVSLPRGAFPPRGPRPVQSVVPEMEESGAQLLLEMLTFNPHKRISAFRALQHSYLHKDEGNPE
T1 sequence (P30281 whole entry partner): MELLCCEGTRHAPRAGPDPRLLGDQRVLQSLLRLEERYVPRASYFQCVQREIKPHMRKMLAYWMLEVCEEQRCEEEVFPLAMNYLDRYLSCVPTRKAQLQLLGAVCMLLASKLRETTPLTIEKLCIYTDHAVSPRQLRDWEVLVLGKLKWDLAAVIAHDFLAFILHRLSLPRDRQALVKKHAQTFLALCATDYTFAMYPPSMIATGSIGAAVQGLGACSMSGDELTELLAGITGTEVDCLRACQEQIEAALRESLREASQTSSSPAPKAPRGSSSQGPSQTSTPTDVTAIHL

`CC(C)Nc1nc([C@@H](C)O)cc2cnc(Nc3ccc(CC(=O)N4CCNCC4)cn3)nc12` [Compound 519]: the results for the IC50 in assay [1] and in assay [2] were less than 0.01 µM and not below 0.1 µM, respectively.
On to `CC(C)Nc1nc([C@@H](C)O)cc2cnc(Nc3ccc(N4CCCNCC4=O)cn3)nc12` [Compound 521], for which the figures for the IC50 in assay [1] and in assay [2] were less than 0.01 µM and 0.01 to 0.1 µM, respectively.
On to `CC(C)Nc1nc([C@@H](C)O)cc2cnc(Nc3ccc(N4CCNCCC4=O)cn3)nc12` [Compound 522], for which the IC50 in assay [1] was less than 0.01 µM; in assay [2], 0.01 to 0.1 µM.
With `CC(C)Nc1nc([C@@H](C)O)cc2cnc(Nc3ccc(N4CC5(CC(O)C5)C4)nn3)nc12` [Compound 524], the IC50 was less than 0.01 µM in assay [1] and not below 0.1 µM in assay [2].
For `CNCCCOc1ccc(Nc2ncc3cc([C@@H](C)OC)nc(NC(C)C)c3n2)nc1` [Compound 526], in that order: less than 0.01 µM and not below 0.1 µM.
Turning to `CNCCOc1ccc(Nc2ncc3cc([C@@H](C)O)nc(NC(C)C)c3n2)nc1` [Compound 529], the IC50 in assay [1] was less than 0.01 µM; in assay [2] it was not below 0.1 µM.
For `CC(C)Nc1nc([C@@H](C)O)cc2cnc(Nc3ccc(N4CCN(C)CC4)nn3)nc12` [Compound 532], the values for the IC50 in assay [1] and in assay [2] were less than 0.01 µM and not below 0.1 µM, respectively.
The corresponding values for `CC(C)Nc1nc([C@@H](C)O)cc2cnc(Nc3ccc(CN4CCNC5(CC5)C4)cn3)nc12` [Compound 537] are less than 0.01 µM and not below 0.1 µM.
The corresponding values for `CC(C)Nc1nc([C@@H](C)O)cc2cnc(Nc3ccc(CN4CCN(C)CC4)cn3)nc12` [Compound 548] are less than 0.01 µM and not below 0.1 µM.
For `CC(C)Nc1nc([C@@H](C)O)cc2cnc(Nc3ccc(CN4CCC(C(C)(C)O)CC4)cn3)nc12` [Compound 549], in that order: less than 0.01 µM and not below 0.1 µM.
For the compound `CC(C)Nc1nc([C@@H](C)O)cc2cnc(Nc3ccc(OCCN4CCNCC4=O)cn3)nc12` [Compound 550], the IC50 in assay [1] was less than 0.01 µM; in assay [2], not below 0.1 µM.
In the case of `CO[C@H](C)c1cc2cnc(Nc3ccc(N4CCCCC(N)C4=O)cn3)nc2c(NC(C)C)n1` (stereo partly shown) [Compound 553], the IC50 in assay [1] was less than 0.01 µM; in assay [2], not below 0.1 µM.
Turning to `CC(C)Nc1nc([C@@H](C)O)cc2cnc(Nc3ccc(N4CCCCC(N)C4=O)cn3)nc12` (stereo partly shown) [Compound 554], the IC50 in assay [1] was less than 0.01 µM; in assay [2], not below 0.1 µM.
For `CC(C)Nc1nc([C@@H](C)O)cc2cnc(Nc3ccc(CN4CCN(CCO)CC4)cn3)nc12` [Compound 555], in that order: less than 0.01 µM and not below 0.1 µM.
For `CO[C@H](C)c1cc2cnc(Nc3ccc(N4C[C@H]5CCN[C@H]5C4=O)cn3)nc2c(NC(C)C)n1` [Compound 556], the IC50 in assay [1] is less than 0.01 µM; in assay [2], 0.01 to 0.1 µM.
For `CO[C@H](C)c1cc2cnc(Nc3ccc(OCC(=O)N4CCNCC4)cn3)nc2c(NC(C)C)n1` [Compound 557], in that order: less than 0.01 µM and not below 0.1 µM.
In the case of `CC(C)Nc1nc([C@@H](C)O)cc2cnc(Nc3ccc(N4C[C@H]5CCN[C@H]5C4=O)cn3)nc12` [Compound 558], the IC50 in assay [1] is less than 0.01 µM; in assay [2], 0.01 to 0.1 µM.
On to `CC(C)Nc1nc([C@@H](C)O)cc2cnc(Nc3ccc(OCC(=O)N4CCNCC4)cn3)nc12` [Compound 559], for which the IC50 was less than 0.01 µM in assay [1] and not below 0.1 µM in assay [2].
The corresponding values for `CO[C@H](C)c1cc2cnc(Nc3ccc(N4CCC(C)(N)CC4)nn3)nc2c(NC(C)C)n1` [Compound 560] are less than 0.01 µM and not below 0.1 µM.
Turning to `CC(C)Nc1nc([C@@H](C)O)cc2cnc(Nc3ccc(N4CCC(C)(N)CC4)nn3)nc12` [Compound 561], the results for the IC50 in assay [1] and in assay [2] were less than 0.01 µM and not below 0.1 µM, respectively.
Take `CC(C)Nc1nc([C@@H](C)O)cc2cnc(Nc3ccc(N4CC5(CNC5)C4)nn3)nc12` [Compound 562]: the results for the IC50 in assay [1] and in assay [2] were less than 0.01 µM and not below 0.1 µM, respectively.
For `CC(C)Nc1nc([C@@H](C)O)cc2cnc(Nc3ccc(O[C@H]4CCNC4)cn3)nc12` [Compound 566], in that order: less than 0.01 µM and not below 0.1 µM.
As for `CC(C)Nc1nc([C@@H](C)O)cc2cnc(Nc3ccc(O[C@@H]4CCNC[C@H]4F)cn3)nc12` [Compound 567], the IC50 in assay [1] is less than 0.01 µM; in assay [2] it was not below 0.1 µM.
As to `CC(C)Nc1nc([C@@H](C)O)cc2cnc(Nc3ccc(O[C@H]4CCNC[C@H]4F)cn3)nc12` [Compound 569], the IC50 is less than 0.01 µM in assay [1] and not below 0.1 µM in assay [2].
For `CC(C)Nc1nc([C@@H](C)O)cc2cnc(Nc3ccc(O[C@@H]4CCNC4)cn3)nc12` [Compound 572], in that order: less than 0.01 µM and not below 0.1 µM.
The corresponding values for `CC(C)Nc1nc([C@@H](C)O)cc2cnc(Nc3ccc(N4CC5(CCN5)C4)nn3)nc12` [Compound 573] are less than 0.01 µM and not below 0.1 µM.
The corresponding values for `CC(C)Nc1nc([C@@H](C)O)cc2cnc(Nc3ccc(N4CC5(CCNC5)C4)nn3)nc12` [Compound 574] are less than 0.01 µM and not below 0.1 µM.
In the case of `CC(C)Nc1nc([C@@H](C)O)cc2cnc(Nc3ccc(N4CC5(CCNCC5)C4)nn3)nc12` [Compound 575], the IC50 in assay [1] was less than 0.01 µM; in assay [2], not below 0.1 µM.
`CC(C)Nc1nc([C@@H](C)O)cc2cnc(Nc3ccc(N4CC5(CC(N)C5)C4)nn3)nc12` [Compound 576]: the results for the IC50 in assay [1] and in assay [2] were less than 0.01 µM and not below 0.1 µM, respectively.
The corresponding values for `CC(C)Nc1nc([C@@H](C)O)cc2cnc(Nc3ccc(OCC4CNC4)nn3)nc12` [Compound 579] are less than 0.01 µM and not below 0.1 µM.
For `CC(C)Nc1nc([C@@H](C)O)cc2cnc(Nc3ccc(N4CCC(N)C4=O)cn3)nc12` (stereo partly shown) [Compound 583], the figures for the IC50 in assay [1] and in assay [2] were less than 0.01 µM and not below 0.1 µM, respectively.
For `CC(C)Nc1nc([C@@H](C)O)cc2cnc(Nc3ccc(N4CCN(C(C)C)CC4=O)cn3)nc12` [Compound 584], in that order: less than 0.01 µM and not below 0.1 µM.
Take `CC(C)Nc1nc([C@@H](C)O)cc2cnc(Nc3ccc(N4CCN(C(C)C)CC4)nn3)nc12` [Compound 585]: the IC50 in assay [1] is less than 0.01 µM; in assay [2], not below 0.1 µM.
For `CC(C)CN1CCN(c2ccc(Nc3ncc4cc([C@@H](C)O)nc(NC(C)C)c4n3)nn2)CC1` [Compound 586], in that order: less than 0.01 µM and not below 0.1 µM.
For the compound `CC(C)Nc1nc([C@@H](C)O)cc2cnc(Nc3ccc(N4CCN(C(C)CO)CC4)nn3)nc12` (stereo partly shown) [Compound 588], the IC50 was less than 0.01 µM in assay [1] and not below 0.1 µM in assay [2].
As to `C[C@@H](O)c1cc2cnc(Nc3ccc(N4CCC(O)CC4)nn3)nc2c(NC2CCC(C)(C)OC2)n1` (stereo partly shown) [Compound 589], the IC50 is less than 0.01 µM in assay [1] and not below 0.1 µM in assay [2].
Turning to `COC1CCC(Nc2nc([C@@H](C)O)cc3cnc(Nc4ccc(N5CCC(O)CC5)nn4)nc23)CC1` (stereo partly shown) [Compound 590], the IC50 in assay [1] is less than 0.01 µM; in assay [2], not below 0.1 µM.
On to `CO[C@H](C)c1cc2cnc(Nc3ccc(N4CCCC(N)C4=O)cn3)nc2c(NC(C)C)n1` (stereo partly shown) [Compound 591], for which the IC50 in assay [1] is less than 0.01 µM; in assay [2], not below 0.1 µM.
For `CNCCOc1ccc(Nc2ncc3cc([C@@H](C)O)nc(NC4CCC(OC)CC4)c3n2)nc1` (stereo partly shown) [Compound 592], in that order: less than 0.01 µM and not below 0.1 µM.
With `CC(C)Nc1nc([C@@H](C)O)cc2cnc(Nc3ccc(N4CCCC(N)C4=O)cn3)nc12` (stereo partly shown) [Compound 593], the IC50 in assay [1] was less than 0.01 µM; in assay [2], not below 0.1 µM.
For `C[C@@H](O)c1cc2cnc(Nc3ccc(N4CCC(O)CC4)nn3)nc2c(N[C@H]2CCCOC2)n1` [Compound 595], in that order: less than 0.01 µM and not below 0.1 µM.
Take `CC(C)CN1CCN(c2ccc(Nc3ncc4cc([C@@H](C)O)nc(NC(C)C)c4n3)nc2)C(=O)C1` [Compound 596]: the IC50 was less than 0.01 µM in assay [1] and not below 0.1 µM in assay [2].
The corresponding values for `CC(C)Nc1nc([C@@H](C)O)cc2cnc(Nc3ccc(N4CCN(CCO)CC4=O)cn3)nc12` [Compound 597] are less than 0.01 µM and not below 0.1 µM.
Take `C[C@@H](O)c1cc2cnc(Nc3ccc(OCCN(C)C)cn3)nc2c(NC2CCC(C)(C)OC2)n1` (stereo partly shown) [Compound 600]: the values for the IC50 in assay [1] and in assay [2] were less than 0.01 µM and not below 0.1 µM, respectively.
For `CNC1(C)CCN(c2ccc(Nc3ncc4cc([C@@H](C)O)nc(NC(C)C)c4n3)nn2)CC1` [Compound 601], in that order: less than 0.01 µM and not below 0.1 µM.
`CC(C)Nc1nc([C@@H](C)O)cc2cnc(Nc3ccc(N4CCN(C5CCC5)CC4)nn3)nc12` [Compound 602]: the IC50 in assay [1] was less than 0.01 µM; in assay [2], not below 0.1 µM.
Consider `CC(C)Nc1nc([C@@H](C)O)cc2cnc(Nc3ccc(N4CCN(C(C)(C)C)CC4)nn3)nc12` [Compound 604], for which the IC50 in assay [1] is less than 0.01 µM; in assay [2] it was not below 0.1 µM.
The corresponding values for `CC(C)Nc1nc([C@@H](C)O)cc2cnc(Nc3ccc(N4CCC(N)CC4=O)cn3)nc12` (stereo partly shown) [Compound 605] are less than 0.01 µM and 0.01 to 0.1 µM.
For `CNC1CC2(C1)CN(c1ccc(Nc3ncc4cc([C@@H](C)O)nc(NC(C)C)c4n3)nn1)C2` [Compound 606], in that order: less than 0.01 µM and not below 0.1 µM.
As to `CC(C)Nc1nc(C(C)O)cc2cnc(Nc3ccc(N4CCC(O)C(F)C4)nn3)nc12` (stereo not shown) [Compound 608], the IC50 is less than 0.01 µM in assay [1] and not below 0.1 µM in assay [2].

Source of the values: patent US10124004B2, “Pyrido[3,4-d]pyrimidine derivative and pharmaceutically acceptable salt thereof” (Teijin Pharma Limited, priority 2015, dated 2018).
